{"source": "patent US10954196B2", "about": "“Method for producing 5-hydroxy-1H-imidazole-4 carboxamide 3/4 hydrate” (FUJIFILM Corporation, priority 2017, dated 2021)", "key": {"[1]": {"experiment": "Test Example 3: coloring stability during storage (unwashed product)", "format": "physicochemical", "conditions": "light shielding, 60° C., 75% relative humidity, hydrate; for Color difference (ΔE): before vs after storage for 5 days, spectrophotometric color difference meter, reflection method; for Tone: visually observed after storage for 5 days, air atmosphere"}, "[2]": {"experiment": "Test Example 1: test of coloring stability during storage (washed product)", "format": "physicochemical", "conditions": "visually observed after storage for 5 days, air atmosphere, light shielding, 60° C., 75% relative humidity, hydrate", "procedure": "About 1 g of the test substance was placed in a storage bag formed by stacking two 0.04 mm-thick polyethylene bags, sealed in each polyethylene bag, and stored for 5 days in an air atmosphere under the conditions of light shielding, 60° C., and 75% relative humidity. The tone of the test substance after the test was visually observed. In addition, a change in the color of the crystal before and after the test was measured with a spectrophotometric color difference meter to determine the color difference. Colorimeter: spectrophotometric color difference meter SE2000 manufactured by Nippon Denshoku Industries Co., Ltd. Measurement method: reflection method"}, "[3]": {"conditions": "as disclosed in Test Example 1 and Test Example 2 of WO2009/035168A; cited from earlier work"}}, "data": [{"compound": "NC(=O)c1nc[nH]c1O.O", "note": "[Comparative Example 1, 5-hydroxy-1H-imidazole-4-carboxamide•¾ hydrate, reference compound]", "values": [{"measurement": "Color difference (ΔE)", "setting": "[1]", "value": 62.4}, {"measurement": "Tone", "setting": "[1]", "value": "Black blue"}]}, {"compound": "NC(=O)c1nc[nH]c1O.O", "note": "[Comparative Example 2, 5-hydroxy-1H-imidazole-4-carboxamide•¾ hydrate, reference compound]", "values": [{"measurement": "Color difference (ΔE)", "setting": "[1]", "value": 51.4}, {"measurement": "Tone", "setting": "[1]", "value": "Black blue"}]}, {"compound": "NC(=O)c1nc[nH]c1O.O", "note": "[Example 2, 5-hydroxy-1H-imidazole-4-carboxamide•¾ hydrate]", "values": [{"measurement": "Color difference (ΔE)", "setting": "[1]", "value": 3.1}, {"measurement": "Tone", "setting": "[1]", "value": "White"}, {"measurement": "Tone", "setting": "[2]", "value": "White"}]}, {"compound": "NC(=O)c1nc[nH]c1O.O", "note": "[Example 3, 5-hydroxy-1H-imidazole-4-carboxamide•¾ hydrate]", "values": [{"measurement": "Color difference (ΔE)", "setting": "[1]", "value": 1.1}, {"measurement": "Tone", "setting": "[1]", "value": "White"}, {"measurement": "Tone", "setting": "[2]", "value": "White"}]}, {"compound": "NC(=O)c1nc[nH]c1O.O", "note": "[Example 4, 5-hydroxy-1H-imidazole-4-carboxamide•¾ hydrate]", "values": [{"measurement": "Color difference (ΔE)", "setting": "[1]", "value": 2.3}, {"measurement": "Tone", "setting": "[1]", "value": "White"}, {"measurement": "Tone", "setting": "[2]", "value": "White"}]}, {"compound": "NC(=O)c1nc[nH]c1O.O", "note": "[Example 5, 5-hydroxy-1H-imidazole-4-carboxamide•¾ hydrate]", "values": [{"measurement": "Color difference (ΔE)", "setting": "[1]", "value": 4.1}, {"measurement": "Tone", "setting": "[1]", "value": "White"}, {"measurement": "Tone", "setting": "[2]", "value": "White"}]}, {"compound": "NC(=O)c1nc[nH]c1O.O", "note": "[Example 7, 5-hydroxy-1H-imidazole-4-carboxamide•¾ hydrate]", "values": [{"measurement": "Color difference (ΔE)", "setting": "[1]", "value": 1.0}, {"measurement": "Tone", "setting": "[1]", "value": "White"}, {"measurement": "Tone", "setting": "[2]", "value": "White"}]}, {"compound": "NC(=O)c1nc[nH]c1O.O", "note": "[Example 8, 5-hydroxy-1H-imidazole-4-carboxamide•¾ hydrate]", "values": [{"measurement": "Color difference (ΔE)", "setting": "[1]", "value": 1.4}, {"measurement": "Tone", "setting": "[1]", "value": "White"}, {"measurement": "Tone", "setting": "[2]", "value": "White"}]}, {"compound": "NC(=O)c1nc[nH]c1O.O", "note": "[Example 9, 5-hydroxy-1H-imidazole-4-carboxamide•¾ hydrate]", "values": [{"measurement": "Color difference (ΔE)", "setting": "[1]", "value": 0.9}, {"measurement": "Tone", "setting": "[1]", "value": "White"}, {"measurement": "Tone", "setting": "[2]", "value": "White"}]}, {"compound": "NC(=O)c1nc[nH]c1O.O", "note": "[Example 10, 5-hydroxy-1H-imidazole-4-carboxamide•¾ hydrate]", "values": [{"measurement": "Color difference (ΔE)", "setting": "[1]", "value": 2.2}, {"measurement": "Tone", "setting": "[1]", "value": "White"}, {"measurement": "Tone", "setting": "[2]", "value": "White"}]}, {"compound": "NC(=O)c1nc[nH]c1O.O", "note": "[Example 11, 5-hydroxy-1H-imidazole-4-carboxamide•¾ hydrate]", "values": [{"measurement": "Color difference (ΔE)", "setting": "[1]", "value": 1.6}, {"measurement": "Tone", "setting": "[1]", "value": "White"}, {"measurement": "Tone", "setting": "[2]", "value": "White"}]}, {"compound": "NC(=O)c1nc[nH]c1O.O", "note": "[Example 12, 5-hydroxy-1H-imidazole-4-carboxamide•¾ hydrate]", "values": [{"measurement": "Tone", "setting": "[1]", "value": "White"}, {"measurement": "Tone", "setting": "[2]", "value": "White"}]}, {"compound": "NC(=O)c1nc[nH]c1O", "note": "[compound A, 5-Hydroxy-1H-imidazole-4-carboxamide]", "values": [{"measurement": "Coloring stability (color change)", "setting": "[3]", "value": "changed color to indigo blue or blue"}]}, {"compound": "Cl.NC(=O)c1nc[nH]c1O", "note": "[hydrochloride of the compound A]", "values": [{"measurement": "Coloring stability (color change)", "setting": "[3]", "value": "stable"}]}]}
